As usually defined, the IC50 is the point on the concentration scale where inhibition reaches its midpoint.

The target of this test is T1, prostanoid EP3 receptors (Homo sapiens, UniProt P43115).
T1 sequence (P43115 1-390): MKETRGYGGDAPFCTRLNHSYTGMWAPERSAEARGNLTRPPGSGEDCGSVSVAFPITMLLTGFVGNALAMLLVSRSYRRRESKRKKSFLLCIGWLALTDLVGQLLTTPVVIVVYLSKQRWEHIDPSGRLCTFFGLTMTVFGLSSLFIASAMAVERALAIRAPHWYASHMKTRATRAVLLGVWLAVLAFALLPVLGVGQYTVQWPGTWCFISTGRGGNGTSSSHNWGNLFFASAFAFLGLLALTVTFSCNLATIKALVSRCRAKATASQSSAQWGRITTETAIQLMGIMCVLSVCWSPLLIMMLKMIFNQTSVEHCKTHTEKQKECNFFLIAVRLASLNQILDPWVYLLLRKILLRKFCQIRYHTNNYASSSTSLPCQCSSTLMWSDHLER
The test is described as follows: binding on prostanoid EP3 receptors (method of Abramovitz et al.). Particulars: read-out: Activity (EP3 receptor binding, IC50 class). The procedure: The compounds of the invention were assayed for their binding on prostanoid EP3 receptors according to the method of Abramovitz et al. [Bioch. Biophys.
As for `O=Cc1cn(Cc2ccc(Cl)cc2Cl)c2c(C=CC(=O)NS(=O)(=O)c3cc(Cl)c(Cl)s3)cc(F)cc12` [Compound P396], the IC50 is under 1000 nM.

Turning to `Cn1cc(C=CC(=O)NS(=O)(=O)c2ccc(Cl)cc2Cl)c2c(Oc3ccc4ccccc4c3)cccc21` [Compound P356], the IC50 was under 1000 nM.

Regarding `CC1C(=O)N(Cc2ccc(Cl)cc2Cl)c2c(C=CC(=O)NS(=O)(=O)c3cc(Cl)c(Cl)s3)cccc21` (centres unmarked) [Compound P107], the IC50 was under 1000 nM.

Take `Cc1cn(Cc2cn3ccccc3n2)c2c(C=CC(=O)NS(=O)(=O)c3ccc(Cl)c(Cl)c3)cc(F)cc12` [Compound P406]: the IC50 was under 1000 nM.

Consider `CN1C(=O)C(S(=O)(=O)c2ccc3ccccc3c2)c2c(OCC(=O)NS(=O)(=O)c3cc(Cl)c(Cl)s3)cccc21` (centres unmarked) [Compound P248], for which the concentration for half-maximal inhibition (IC50) was under 1000 nM.

As to `Cn1cc(C=CC(=O)NS(=O)(=O)c2cc(Cl)c(Cl)s2)c2c(Oc3ccc(F)c(F)c3)cccc21` [Compound P320], the IC50 was under 1000 nM.

As for `Cn1cc(C=CC(=O)NS(=O)(=O)c2ccc(F)c(F)c2)c2c(Oc3ccc(Cl)c(Cl)c3)cccc21` [Compound P293], the IC50 is under 1000 nM.

With `O=C(COc1cccc2oc(=O)n(Cc3ccc4ccccc4c3)c12)NS(=O)(=O)C(F)(F)F` [Compound P048], the IC50 lay within 1000 to 10000 nM.

For `COc1cc(Cn2cc(C)c3cc(F)cc(C=CC(=O)NS(=O)(=O)c4cc(F)c(F)cc4F)c32)cc(OC)c1` [Compound P375], the IC50 was under 1000 nM.

On to `CC(=O)Nc1ccc(Sc2c[nH]c3cccc(OCC(=O)NS(=O)(=O)c4cc(Cl)c(Cl)s4)c23)cc1` [Compound P233], for which the IC50 was under 1000 nM.

Take `Cn1cc(C=CC(=O)NS(=O)(=O)c2cc(F)c(F)cc2F)c2c(Oc3ccc(F)cc3Cl)cccc21` [Compound P340]: the IC50 was under 1000 nM.

`CC(=O)Nc1ccc(S(=O)(=O)c2c[nH]c3cccc(OCC(=O)NS(=O)(=O)c4cc(Cl)c(Cl)s4)c23)cc1` [Compound P235]: the IC50 was under 1000 nM.

`Cc1cn(Cc2cc(F)cc3c2OCOC3)c2c(/C=C/C(=O)NS(=O)(=O)c3cccs3)cccc12` [Compound P102]: the IC50 was under 1000 nM.

`O=C(C=Cc1cccc2c1C(Cc1ccc3ccccc3c1)C(=O)N2)NS(=O)(=O)c1cc(Cl)c(Cl)s1` (centres unmarked) [Compound P155]: the IC50 is under 1000 nM.

Consider `O=C(C=Cc1cccc2ccn(Cc3ccc4ccccc4c3)c12)NS(=O)(=O)C(F)(F)F` [Compound P016], for which the IC50 is under 1000 nM.

Take `Cc1ccc(S(=O)(=O)c2c[nH]c3cccc(OCC(=O)NS(=O)(=O)c4cc(Cl)c(Cl)s4)c23)c(C)c1` [Compound P172]: the IC50 is under 1000 nM.

As to `CC1(C)C(=O)N(Cc2ccc(Cl)cc2Cl)c2c(C=CC(=O)NS(=O)(=O)c3cc(Cl)c(Cl)s3)cccc21` [Compound P131], the IC50 is under 1000 nM.

With `O=C(C=Cc1cccc2ccn(Cc3ccc4ccccc4c3)c12)NS(=O)(=O)c1cccs1` [Compound P001], the IC50 is under 1000 nM.

For `Cn1cc(C=CC(=O)NS(=O)(=O)c2cc(F)c(F)cc2F)c2c(Oc3ccc(Cl)c(F)c3)cccc21` [Compound P331], the IC50 was under 1000 nM.

On to `O=C(COc1cccc2[nH]cc(Sc3ccc4ccccc4c3)c12)NS(=O)(=O)C(F)(F)F` [Compound P243], for which the IC50 was under 1000 nM.

On to `Cn1cc(C=CC(=O)NS(=O)(=O)c2cc(F)c(F)cc2F)c2c(Oc3ccc4ncccc4c3)cccc21` [Compound P377], for which the IC50 is under 1000 nM.

For `Cc1cn(Cc2ccccc2-c2ccccc2)c2c(/C=C/C(=O)NS(=O)(=O)c3cc(Cl)c(Cl)s3)cccc12` [Compound P125], the IC50 was under 1000 nM.

As for `O=C(C=Cc1cc(F)cc2c(CO)cn(Cc3ccc(Cl)cc3Cl)c12)NS(=O)(=O)c1cc(Cl)c(Cl)s1` [Compound P397], the IC50 is under 1000 nM.

As to `Cc1cn(Cc2ccc3ccccc3c2)c2c(/C=C/C(=O)NS(=O)(=O)c3cccs3)cccc12` [Compound P057], the IC50 was under 1000 nM.

Regarding `O=C(COc1cccc2oc(=O)n(Cc3ccc(Cl)cc3Cl)c12)NS(=O)(=O)c1cccs1` [Compound P052], the IC50 is under 1000 nM.

For `CC1(O)C(=O)N(Cc2ccc3ccccc3c2)c2c(C=CC(=O)NS(=O)(=O)c3cccs3)cccc21` (centres unmarked) [Compound P111], the IC50 is under 1000 nM.

As to `Cc1cn(Cc2ccc(F)c(F)c2)c2c(C=CC(=O)NS(=O)(=O)c3ccc(F)c(F)c3)cc(F)cc12` [Compound P315], the IC50 is under 1000 nM.

Turning to `Cc1cn(Cc2ccc(Cl)cc2)c2c(/C=C/C(=O)NS(=O)(=O)c3cc(Cl)c(Cl)s3)cccc12` [Compound P137], the half-maximal inhibitory concentration (IC50) is under 1000 nM.

Consider `Cc1cn(Cc2ccc3ccccc3n2)c2c(/C=C/C(=O)NS(=O)(=O)c3cccs3)cccc12` [Compound P099], for which the IC50 is under 1000 nM.

Turning to `CN1C(=O)C(Sc2ccc3ccccc3c2)c2c(OCC(=O)NS(=O)(=O)c3cc(Cl)c(Cl)s3)cccc21` (centres unmarked) [Compound P229], the IC50 was under 1000 nM.

Regarding `O=C(CCc1cccc2ccn(Cc3ccc4ccccc4c3)c12)NS(=O)(=O)c1cccs1` [Compound P074], the IC50 is under 1000 nM.

For the molecule `Cc1cn(Cc2ccc(F)cc2)c2c(C=CC(=O)NS(=O)(=O)c3ccc(F)c(F)c3)cc(F)cc12` [Compound P314], the IC50 was under 1000 nM.

Take `Cn1cc(/C=C/C(=O)NS(=O)(=O)c2cc(F)c(F)cc2F)c2c(Oc3ccc4ccccc4c3)cccc21` [Compound P343]: the IC50 is under 1000 nM.

Take `Cc1cn(Cc2ccc(OC(F)(F)F)cc2)c2c(/C=C/C(=O)NS(=O)(=O)c3cc(Cl)c(Cl)s3)cccc12` [Compound P143]: the IC50 is under 1000 nM.

`Cn1cc(C=CC(=O)NS(=O)(=O)c2cc(F)c(F)cc2F)c2c(Oc3ccc(Cl)c(Cl)c3)cccc21` [Compound P292]: the IC50 was under 1000 nM.

Take `CC12CCCC(C=CC(=O)NS(=O)(=O)c3cc(F)c(F)cc3F)=C1N(Cc1cccc(Cl)c1Cl)C(=O)C2` (centres unmarked) [Compound P296]: the IC50 is under 1000 nM.

Consider `O=C(COc1cccc2c1N(Cc1ccc(F)cc1)C(=O)CO2)NS(=O)(=O)c1cccs1` [Compound P024], for which the IC50 is over 10000 nM.

`Cn1cc(C=CC(=O)NS(=O)(=O)c2ccccc2Cl)c2c(Oc3ccc4ccccc4c3)cccc21` [Compound P352]: the IC50 is under 1000 nM.

Consider `Cn1cc(C=CC(=O)NS(=O)(=O)c2cc(Cl)c(Cl)s2)c2c(Oc3ccc(F)c(Cl)c3)cccc21` [Compound P330], for which the IC50 was under 1000 nM.

With `Cn1cc(C=CC(=O)NS(=O)(=O)c2ccc(F)c(F)c2)c2c(Oc3ccc(Cl)c(F)c3)cccc21` [Compound P332], the IC50 was under 1000 nM.

Turning to `O=C(COc1cccc2[nH]cc(Sc3ccc4ccccc4c3)c12)NS(=O)(=O)c1ccc(F)cc1` [Compound P225], the IC50 is under 1000 nM.

`O=C(COc1cccc2oc(=O)n(Cc3ccc(Cl)c(Cl)c3)c12)NS(=O)(=O)c1cccs1` [Compound P051]: the half-inhibitory concentration (IC50) is under 1000 nM.

Turning to `Cc1cn(Cc2ccccc2)c2c(/C=C/C(=O)NS(=O)(=O)c3cc(Cl)c(Cl)s3)cccc12` [Compound P122], the IC50 is under 1000 nM.

Turning to `O=C(COc1cccc2[nH]cc(S(=O)(=O)c3ccc4ccccc4c3)c12)NS(=O)(=O)c1cc(F)c(F)cc1F` [Compound P237], the IC50 is under 1000 nM.

As to `CC(=O)CC1(O)C(=O)N(Cc2ccc(Cl)cc2Cl)c2c(C=CC(=O)NS(=O)(=O)c3cc(Cl)c(Cl)s3)cccc21` (centres unmarked) [Compound P128], the IC50 is under 1000 nM.

In the case of `O=C(COc1cccc2[nH]cc(Sc3ccc(F)c(F)c3)c12)NS(=O)(=O)c1cc(Cl)c(Cl)s1` [Compound P209], the IC50 was under 1000 nM.

`Cn1cc(CCC(=O)NS(=O)(=O)c2ccc(F)c(F)c2)c2c(Oc3ccc4ccccc4c3)cccc21` [Compound P362]: the IC50 was under 1000 nM.

As for `COc1ccc(Br)cc1S(=O)(=O)NC(=O)COc1cccc2oc(=O)n(Cc3ccc4ccccc4c3)c12` [Compound P047], the IC50 was under 1000 nM.

As to `CC12CCCC(C=CC(=O)NS(=O)(=O)c3cc(Cl)c(Cl)s3)=C1N(Cc1ccc(Cl)cc1Cl)C(=O)C2` (centres unmarked) [Compound P278], the IC50 is under 1000 nM.

Regarding `O=C(COc1cccc2[nH]cc(Sc3ccc4ccccc4c3)c12)NS(=O)(=O)c1cccc(Cl)c1` [Compound P184], the IC50 is under 1000 nM.

On to `Cn1cc(C=CC(=O)NS(=O)(=O)c2ccc(F)c(F)c2)c2c(Oc3ccc4ncccc4c3)cccc21` [Compound P376], for which the IC50 is under 1000 nM.

As to `Cc1ccc(C)c(Cn2cc(C)c3cccc(/C=C/C(=O)NS(=O)(=O)c4cc(Cl)c(Cl)s4)c32)c1` [Compound P138], the IC50 was under 1000 nM.

For `CC12CCCC(C=CC(=O)NS(=O)(=O)c3ccc(F)c(F)c3)=C1N(Cc1ccc(Cl)cc1Cl)C(=O)C2` (centres unmarked) [Compound P283], the IC50 was under 1000 nM.

In the case of `Cn1cc(C=CC(=O)NS(=O)(=O)c2c(F)c(F)c(F)c(F)c2F)c2c(Oc3ccc4ccccc4c3)cccc21` [Compound P373], the IC50 was under 1000 nM.

For `Cn1cc(CCC(=O)NS(=O)(=O)c2cc(F)c(F)cc2F)c2c(Oc3ccc4ccccc4c3)cccc21` [Compound P412], the IC50 is under 1000 nM.

Take `Cc1cn(Cc2cc3c(cc2Cl)OCO3)c2c(/C=C/C(=O)NS(=O)(=O)c3cccs3)cccc12` [Compound P089]: the half-maximal inhibitory concentration (IC50) is under 1000 nM.

With `Cn1cc(C=CC(=O)NS(=O)(=O)c2cc(F)c(F)cc2F)c2c(Oc3ccc(F)c(F)c3)cccc21` [Compound P318], the IC50 was under 1000 nM.

Consider `Cc1cn(Cc2ccccc2Cl)c2c(/C=C/C(=O)NS(=O)(=O)c3cc(Cl)c(Cl)s3)cccc12` [Compound P123], for which the IC50 was under 1000 nM.

For `Cn1cc(/C=C/C(=O)NS(=O)(=O)c2cc(Cl)c(Cl)s2)c2c(Oc3ccc(Cl)c(F)c3)cccc21` [Compound P333], the IC50 was under 1000 nM.
